Source: PMC9179928 (Journal of medicinal chemistry, 2021)

Legend:
[1] = test system: EV-D68 and EV-A71 strains; experiment: organism not typed; assay type: cell-based; details: for EC50: RD, read-out: EC50 values against all EV-D68 and EV-A71 strains tested; for selectivity index over all EV-D68 and EV-A71 strains tested: strains of Table 2, RD cells
[2] = test system: EV-D68 US/KY/14-18953; experiment: CPE assay, EV-D68 US/KY/14-18953 in RD cells; assay type: cell-based, enterovirus D68; details: vs 7a
[3] = test system: EV-D68 2C-D183V mutant; assay type: binding; details: 7d at 100 μM
[4] = test system: EV-D68 2C-D323G mutant; assay type: binding; details: 7d at 100 μM
[5] = test system: EV-D68 2C-D183V/D323G double mutant; assay type: binding; details: 7d at 100 μM
[6] = test system: EV-A71 2C protein; assay type: binding; details: 7d at 10, 30, 100 and 300 μM
[7] = biological target: CVB3 2C protein (Coxsackievirus B3, UniProt P03313); assay type: binding; details: 7d at 10, 30, 100 and 300 μM
[8] = test system: EV-D68 US/MO/14-18947; experiment: Plaque assay, EV-D68 US/MO/14-18947 in RD cells; assay type: cell-based, enterovirus D68; details: at 3 μM, positive control
[9] = test system: EV-D68 US/MO/14-18947; experiment: Immunofluorescence assay; assay type: cell-based, enterovirus D68; details: at 50 μM, SH-SY5Y cells, positive control

SMILES	EC50 [1]	improvement in antiviral efficacy compared to the original hit 7a against EV-D68 virus [2]	other results
CC(C)c1cc(C(=O)NCCN(C)C)c2cnn(C(C)C)c2n1 [10a, N-[2-(dimethylamino)ethyl]-1,6-bis(propan-2-yl)-1H-pyrazolo[3,4-b]pyridine-4-carboxamide]	60 to 300 nM	–	selectivity index over all EV-D68 and EV-A71 strains tested [1]: over 700
CC(C)n1ncc2c(C(=O)NCCN(C)C)cc(C3CC3)nc21 [7d, 6-cyclopropyl-N-[2-(dimethylamino)ethyl]-1-(propan-2-yl)-1H-pyrazolo[3,4-b]pyridine-4-carboxamide]	40 to 100 nM	more than 100 fold	ΔTm, 2C-D183V mutant [3]: 0.01 °C; ΔTm, 2C-D323G mutant [4]: 3.92 °C; ΔTm, 2C-D183V/D323G double mutant [5]: 0.61 °C; binding to EV-A71 2C protein [6]: dose-dependent binding; binding to CVB3 2C protein [7]: dose-dependent binding
CCC[C@H](NC(=O)[C@@H]1[C@H]2CCC[C@H]2CN1C(=O)[C@@H](NC(=O)[C@@H](NC(=O)c1cnccn1)C1CCCCC1)C(C)(C)C)C(=O)C(=O)NC1CC1 [Telaprevir]	–	–	inhibition of plaque formation [8]: complete inhibition of plaque formation
CC(CN(C)C)NC(=O)c1cc(C2CC2)nc2c1cnn2C(C)C (stereo not drawn) [7f, 6-cyclopropyl-N-[1-(dimethylamino)propan-2-yl]-1-(propan-2-yl)-1H-pyrazolo[3,4-b]pyridine-4-carboxamide]	–	more than 100 fold	–
Cc1cc(C(=O)NCCN(C)C)c2c(C)nn(C(C)(C)C)c2n1 [compound 19, 1-tert-butyl-N-[2-(dimethylamino)ethyl]-3,6-dimethyl-1H-pyrazolo[3,4-b]pyridine-4-carboxamide]	400 to 7400 nM	–	–
CC(C)n1ncc2c(C(=O)NCCN3CCCC3)cc(C3CC3)nc21 [7b, 6-cyclopropyl-1-(propan-2-yl)-N-[2-(pyrrolidin-1-yl)ethyl]-1H-pyrazolo[3,4-b]pyridine-4-carboxamide]	–	more than 100 fold	–
CC(C)n1ncc2c(C(=O)NC3CCN(C)C3)cc(C3CC3)nc21 (stereo not drawn) [7g, 6-cyclopropyl-N-(1-methylpyrrolidin-3-yl)-1-(propan-2-yl)-1H-pyrazolo[3,4-b]pyridine-4-carboxamide]	–	more than 100 fold	–
Cc1cc(CCCOc2c(C)cc(-c3noc(C(F)(F)F)n3)cc2C)on1 [pleconaril]	–	–	viral replication (VP1 fluorescence signal) [9]: completely abolished viral replication
CNCCNC(=O)c1cc(C2CC2)nc2c1cnn2C(C)C [7h, 6-cyclopropyl-N-[2-(methylamino)ethyl]-1-(propan-2-yl)-1H-pyrazolo[3,4-b]pyridine-4-carboxamide]	60 to 300 nM	more than 100 fold	selectivity index over all EV-D68 and EV-A71 strains tested [1]: over 700
